Consider 7 compounds from PMC2730633 (Bioorganic & medicinal chemistry letters, 2009).

Assay [1] deals with b-raf, CSF1R, DDR1, DDR2, EphA2, EphA5, EphA8, EphB1, EphB2, EphB3, Frk, Kit, Lck, p38α, p38β, PDGFRα, PDGFRβ, Raf1. The assay can be described thus: Ambit KinomeScan panel of 402 kinases, single concentration. The note with it: single concentration of 10 µM. Type of assay: binding.
The next assay addresses Tel-Lyn (Homo sapiens, UniProt P07948+P41212). In words: Tyrosine kinase transformed Ba/F3 cellular assay. The assay is classed as cell-based. The note with it: for cellular activity against Src-family kinases (Tel-Lyn): Ba/F3.
The next assay has as its target T1, Tel fusion of EphA3 (Homo sapiens, UniProt P29320).
T1 sequence (P29320 621-882): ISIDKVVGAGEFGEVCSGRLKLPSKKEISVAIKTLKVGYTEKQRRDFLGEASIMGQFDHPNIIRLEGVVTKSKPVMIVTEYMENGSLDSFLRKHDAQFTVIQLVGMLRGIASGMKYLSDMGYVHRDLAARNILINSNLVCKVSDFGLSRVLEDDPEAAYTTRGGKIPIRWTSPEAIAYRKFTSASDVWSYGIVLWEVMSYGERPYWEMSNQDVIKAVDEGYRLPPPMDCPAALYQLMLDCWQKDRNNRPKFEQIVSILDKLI
T1 sequence (P41212 40-124 partner): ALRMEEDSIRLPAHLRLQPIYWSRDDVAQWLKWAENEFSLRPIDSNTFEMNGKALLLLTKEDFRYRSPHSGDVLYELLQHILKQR
The assay can be described thus: Tyrosine kinase transformed Ba/F3 cellular assay. Type of assay: cell-based. Conditions: Ba/F3 cells transformed with Tel fusion of EphA3.

The target in another assay is Bcr-Abl (Homo sapiens, UniProt P00519+P11274). In words: Tyrosine kinase transformed Ba/F3 cellular assay. Type of assay: cell-based. The note with it: for cross reactivity with Bcr-Abl: Ba/F3 panel screen.
The target in a further assay is Tel-Src (Homo sapiens, UniProt P12931+P41212). In words: Tyrosine kinase transformed Ba/F3 cellular assay. Type of assay: cell-based. The note with it: for cellular activity against Src-family kinases (Tel-Src): Ba/F3.
The target of a further assay is FGFR3 (Homo sapiens, UniProt P22607). In words: Tyrosine kinase transformed Ba/F3 cellular assay. Conditions: Ba/F3 panel screen, printed FGFR2/3/4. The assay is classed as cell-based.
The target of the next assay is FGFR2 (Homo sapiens, UniProt P21802). The assay can be described thus: Tyrosine kinase transformed Ba/F3 cellular assay. The assay is classed as cell-based. The note with it: Ba/F3 panel screen, printed FGFR2/3/4.
The target in another assay is FGFR4 (Homo sapiens, UniProt P22455). The assay can be described thus: Tyrosine kinase transformed Ba/F3 cellular assay. The note with it: Ba/F3 panel screen, printed FGFR2/3/4. Type of assay: cell-based.
In assay [2] the test system is Bcr-Abl threonine to isoleucine gatekeeper substitution. The note with it: threonine to isoleucine substitution of the gatekeeper position ref 21; cited from earlier work.
The next assay has as its target T2, EphB2 (Homo sapiens, UniProt P29323).
T2 sequence (P29323 19-1055): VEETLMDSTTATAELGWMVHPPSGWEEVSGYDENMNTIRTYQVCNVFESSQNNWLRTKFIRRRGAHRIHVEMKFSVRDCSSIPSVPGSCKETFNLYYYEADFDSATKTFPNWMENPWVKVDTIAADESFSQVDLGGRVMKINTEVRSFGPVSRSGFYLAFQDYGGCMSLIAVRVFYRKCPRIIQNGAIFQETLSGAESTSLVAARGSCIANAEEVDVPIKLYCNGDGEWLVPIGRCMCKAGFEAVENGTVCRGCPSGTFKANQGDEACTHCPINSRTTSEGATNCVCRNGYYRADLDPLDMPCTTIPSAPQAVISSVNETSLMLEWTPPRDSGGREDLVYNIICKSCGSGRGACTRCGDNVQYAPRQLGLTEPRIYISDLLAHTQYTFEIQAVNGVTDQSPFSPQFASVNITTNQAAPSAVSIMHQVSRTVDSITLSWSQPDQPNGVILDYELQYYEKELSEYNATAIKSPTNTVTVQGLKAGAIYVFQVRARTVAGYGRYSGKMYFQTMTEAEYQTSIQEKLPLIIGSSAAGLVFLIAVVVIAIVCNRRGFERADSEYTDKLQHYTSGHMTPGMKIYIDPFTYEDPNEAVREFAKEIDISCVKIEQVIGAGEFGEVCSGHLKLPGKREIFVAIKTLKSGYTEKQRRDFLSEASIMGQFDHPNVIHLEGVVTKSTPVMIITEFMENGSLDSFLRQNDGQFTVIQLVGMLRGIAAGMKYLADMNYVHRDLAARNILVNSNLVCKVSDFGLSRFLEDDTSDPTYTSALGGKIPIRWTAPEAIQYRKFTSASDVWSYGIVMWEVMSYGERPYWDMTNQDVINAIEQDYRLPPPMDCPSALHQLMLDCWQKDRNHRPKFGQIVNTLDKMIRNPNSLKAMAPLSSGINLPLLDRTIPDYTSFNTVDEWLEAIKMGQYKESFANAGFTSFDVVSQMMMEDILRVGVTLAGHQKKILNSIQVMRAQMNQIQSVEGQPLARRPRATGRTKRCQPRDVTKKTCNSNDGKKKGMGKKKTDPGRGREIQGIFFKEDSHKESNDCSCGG
Conditions: proteomic and cellular screening approaches ref 10, 9; cited from earlier work.

A further assay has as its target EphA7 (Homo sapiens, UniProt Q15375). In words: KinomeScan dose-response dissociation constant. Conditions: for inhibition of EphA7: KinomeScan binding. The assay is classed as binding.
A further assay concerns the target T3, EphB1 (Homo sapiens, UniProt P54762).
T3 sequence (P54762 18-984): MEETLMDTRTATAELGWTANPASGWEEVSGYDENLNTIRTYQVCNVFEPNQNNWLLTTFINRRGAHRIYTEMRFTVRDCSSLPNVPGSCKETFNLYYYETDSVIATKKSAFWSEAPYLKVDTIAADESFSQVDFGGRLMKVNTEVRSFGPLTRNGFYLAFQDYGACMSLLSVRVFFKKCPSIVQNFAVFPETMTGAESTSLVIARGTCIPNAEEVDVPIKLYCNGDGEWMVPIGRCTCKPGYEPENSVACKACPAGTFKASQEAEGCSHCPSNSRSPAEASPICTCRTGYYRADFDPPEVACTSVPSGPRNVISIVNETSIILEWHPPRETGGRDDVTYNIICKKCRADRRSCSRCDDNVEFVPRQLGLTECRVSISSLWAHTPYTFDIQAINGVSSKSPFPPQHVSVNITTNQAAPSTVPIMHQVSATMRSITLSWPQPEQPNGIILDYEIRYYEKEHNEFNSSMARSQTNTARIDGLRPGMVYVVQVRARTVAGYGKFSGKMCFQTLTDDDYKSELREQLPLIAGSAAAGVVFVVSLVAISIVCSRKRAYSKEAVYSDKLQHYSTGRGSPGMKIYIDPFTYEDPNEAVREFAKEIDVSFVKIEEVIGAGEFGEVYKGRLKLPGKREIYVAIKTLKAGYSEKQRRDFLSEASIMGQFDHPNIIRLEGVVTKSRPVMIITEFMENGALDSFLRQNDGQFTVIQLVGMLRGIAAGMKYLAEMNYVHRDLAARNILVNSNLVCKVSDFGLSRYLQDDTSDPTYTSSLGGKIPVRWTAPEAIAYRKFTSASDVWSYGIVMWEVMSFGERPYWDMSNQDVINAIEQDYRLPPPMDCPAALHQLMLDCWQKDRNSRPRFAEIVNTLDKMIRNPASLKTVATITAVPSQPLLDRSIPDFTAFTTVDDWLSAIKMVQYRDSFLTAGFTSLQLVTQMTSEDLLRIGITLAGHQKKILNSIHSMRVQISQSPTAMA
In words: KinomeScan dose-response dissociation constant. Conditions: KinomeScan binding.

A further assay deals with b-raf (Homo sapiens, UniProt P15056). In words: Cellular activity against b-raf. The assay is classed as cell-based.
The target of another assay is T4, EphA6 (Homo sapiens, UniProt Q9UF33).
T4 sequence (Q9UF33 23-1036): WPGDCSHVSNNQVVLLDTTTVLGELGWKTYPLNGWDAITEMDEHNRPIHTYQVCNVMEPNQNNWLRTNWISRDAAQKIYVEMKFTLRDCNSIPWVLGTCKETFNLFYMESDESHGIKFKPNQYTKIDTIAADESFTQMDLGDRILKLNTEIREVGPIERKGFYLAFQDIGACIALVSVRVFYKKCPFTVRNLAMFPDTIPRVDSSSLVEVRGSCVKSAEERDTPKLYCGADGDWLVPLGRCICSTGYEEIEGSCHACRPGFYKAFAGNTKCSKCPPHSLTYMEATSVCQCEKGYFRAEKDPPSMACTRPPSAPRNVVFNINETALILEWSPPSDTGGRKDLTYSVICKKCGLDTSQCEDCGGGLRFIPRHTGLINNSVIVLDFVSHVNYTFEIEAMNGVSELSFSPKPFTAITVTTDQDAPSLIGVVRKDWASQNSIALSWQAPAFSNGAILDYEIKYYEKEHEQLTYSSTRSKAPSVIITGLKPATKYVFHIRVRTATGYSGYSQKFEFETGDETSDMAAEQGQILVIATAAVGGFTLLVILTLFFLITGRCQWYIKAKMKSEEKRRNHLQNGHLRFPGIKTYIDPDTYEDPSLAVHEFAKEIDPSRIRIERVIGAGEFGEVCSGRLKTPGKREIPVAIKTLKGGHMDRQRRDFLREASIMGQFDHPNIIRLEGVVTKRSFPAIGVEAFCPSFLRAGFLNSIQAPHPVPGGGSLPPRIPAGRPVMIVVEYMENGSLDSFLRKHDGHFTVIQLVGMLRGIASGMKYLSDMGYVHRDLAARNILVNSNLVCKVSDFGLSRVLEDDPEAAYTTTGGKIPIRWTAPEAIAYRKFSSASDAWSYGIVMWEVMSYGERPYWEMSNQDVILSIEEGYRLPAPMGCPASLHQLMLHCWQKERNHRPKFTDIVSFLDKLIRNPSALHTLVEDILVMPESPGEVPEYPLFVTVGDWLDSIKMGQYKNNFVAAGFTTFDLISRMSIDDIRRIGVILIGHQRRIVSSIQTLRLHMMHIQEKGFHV
The assay can be described thus: KinomeScan dose-response dissociation constant. The note with it: KinomeScan binding.

Another assay deals with Eph-family kinases. The assay can be described thus: Invitrogen SelectScreen biochemical kinase activity assay. The note with it: [Km,app] ATP, starting concentration 10 µM.

Sequence of EphA7 (Q15375 28-998, species assumed): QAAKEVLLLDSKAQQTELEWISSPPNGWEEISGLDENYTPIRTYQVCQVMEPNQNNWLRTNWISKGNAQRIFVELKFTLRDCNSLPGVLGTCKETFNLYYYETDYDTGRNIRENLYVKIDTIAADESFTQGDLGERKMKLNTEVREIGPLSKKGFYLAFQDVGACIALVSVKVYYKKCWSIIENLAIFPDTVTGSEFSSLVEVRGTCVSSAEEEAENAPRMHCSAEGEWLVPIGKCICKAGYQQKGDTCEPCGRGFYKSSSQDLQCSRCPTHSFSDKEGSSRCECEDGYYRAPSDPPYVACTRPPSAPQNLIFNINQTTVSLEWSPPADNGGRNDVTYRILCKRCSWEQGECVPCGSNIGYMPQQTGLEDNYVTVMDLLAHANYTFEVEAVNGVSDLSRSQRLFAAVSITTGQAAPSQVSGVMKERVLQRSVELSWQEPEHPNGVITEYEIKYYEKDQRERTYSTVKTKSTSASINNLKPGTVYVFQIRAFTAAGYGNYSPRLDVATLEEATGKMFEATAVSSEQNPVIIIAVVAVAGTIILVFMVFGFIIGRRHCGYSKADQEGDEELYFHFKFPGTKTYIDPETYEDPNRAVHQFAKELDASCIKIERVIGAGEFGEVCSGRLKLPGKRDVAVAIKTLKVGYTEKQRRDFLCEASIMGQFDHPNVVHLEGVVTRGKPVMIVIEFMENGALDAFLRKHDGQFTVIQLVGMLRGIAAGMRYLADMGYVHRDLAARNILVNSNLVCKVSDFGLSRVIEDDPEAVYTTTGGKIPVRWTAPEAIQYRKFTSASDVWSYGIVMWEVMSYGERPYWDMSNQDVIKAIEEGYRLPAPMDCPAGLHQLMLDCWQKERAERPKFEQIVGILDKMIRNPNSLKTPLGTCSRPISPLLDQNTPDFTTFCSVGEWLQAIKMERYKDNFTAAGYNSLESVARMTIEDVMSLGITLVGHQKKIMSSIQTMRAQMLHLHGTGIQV
Sequence of Tel-Src (P12931 270-523 limits assumed, one chain of several): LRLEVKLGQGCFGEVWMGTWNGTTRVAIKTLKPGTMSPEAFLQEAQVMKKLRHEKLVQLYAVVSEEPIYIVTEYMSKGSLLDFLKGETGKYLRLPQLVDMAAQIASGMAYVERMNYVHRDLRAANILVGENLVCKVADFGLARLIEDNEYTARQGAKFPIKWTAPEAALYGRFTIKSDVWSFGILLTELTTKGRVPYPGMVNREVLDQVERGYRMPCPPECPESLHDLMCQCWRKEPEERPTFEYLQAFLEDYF
Sequence of Tel-Lyn (P07948 247-501 limits assumed, one chain of several): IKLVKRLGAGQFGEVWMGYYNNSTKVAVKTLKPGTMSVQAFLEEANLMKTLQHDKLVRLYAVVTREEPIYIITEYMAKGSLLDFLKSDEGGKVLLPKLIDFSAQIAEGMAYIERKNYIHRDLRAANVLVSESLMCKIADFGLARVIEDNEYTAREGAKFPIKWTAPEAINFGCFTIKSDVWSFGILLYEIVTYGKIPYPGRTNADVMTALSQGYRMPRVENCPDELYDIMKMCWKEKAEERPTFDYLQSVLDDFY
Sequence of Bcr-Abl (P00519 28-1130 limits assumed, one chain of several): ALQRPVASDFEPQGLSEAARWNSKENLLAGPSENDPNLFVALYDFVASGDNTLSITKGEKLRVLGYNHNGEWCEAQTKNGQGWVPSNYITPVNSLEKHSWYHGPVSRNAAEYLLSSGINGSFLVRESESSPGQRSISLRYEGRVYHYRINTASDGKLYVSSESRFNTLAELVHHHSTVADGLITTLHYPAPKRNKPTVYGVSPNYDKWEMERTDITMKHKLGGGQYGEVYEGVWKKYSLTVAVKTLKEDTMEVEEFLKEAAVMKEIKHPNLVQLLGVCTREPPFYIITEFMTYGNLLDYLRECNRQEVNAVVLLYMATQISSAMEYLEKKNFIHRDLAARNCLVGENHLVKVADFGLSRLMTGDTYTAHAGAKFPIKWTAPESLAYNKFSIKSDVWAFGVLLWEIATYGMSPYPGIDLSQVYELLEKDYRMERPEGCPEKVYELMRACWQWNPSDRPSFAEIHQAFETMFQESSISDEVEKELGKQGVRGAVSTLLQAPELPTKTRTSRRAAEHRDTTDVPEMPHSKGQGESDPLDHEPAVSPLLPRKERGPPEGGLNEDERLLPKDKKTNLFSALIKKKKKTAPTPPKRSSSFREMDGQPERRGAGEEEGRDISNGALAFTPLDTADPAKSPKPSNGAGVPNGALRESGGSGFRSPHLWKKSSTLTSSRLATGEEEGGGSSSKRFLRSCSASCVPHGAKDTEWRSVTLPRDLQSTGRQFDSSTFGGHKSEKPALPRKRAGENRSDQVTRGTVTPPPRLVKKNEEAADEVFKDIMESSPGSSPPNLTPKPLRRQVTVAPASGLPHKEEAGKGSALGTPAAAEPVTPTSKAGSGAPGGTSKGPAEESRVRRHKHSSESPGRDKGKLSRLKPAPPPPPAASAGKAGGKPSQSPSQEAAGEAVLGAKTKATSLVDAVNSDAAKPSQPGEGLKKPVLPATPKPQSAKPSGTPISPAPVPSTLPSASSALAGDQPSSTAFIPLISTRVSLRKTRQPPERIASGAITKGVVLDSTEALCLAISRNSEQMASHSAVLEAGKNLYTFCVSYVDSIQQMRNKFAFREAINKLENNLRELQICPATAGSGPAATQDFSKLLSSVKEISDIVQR
Sequence of b-raf (P15056 whole entry, species assumed): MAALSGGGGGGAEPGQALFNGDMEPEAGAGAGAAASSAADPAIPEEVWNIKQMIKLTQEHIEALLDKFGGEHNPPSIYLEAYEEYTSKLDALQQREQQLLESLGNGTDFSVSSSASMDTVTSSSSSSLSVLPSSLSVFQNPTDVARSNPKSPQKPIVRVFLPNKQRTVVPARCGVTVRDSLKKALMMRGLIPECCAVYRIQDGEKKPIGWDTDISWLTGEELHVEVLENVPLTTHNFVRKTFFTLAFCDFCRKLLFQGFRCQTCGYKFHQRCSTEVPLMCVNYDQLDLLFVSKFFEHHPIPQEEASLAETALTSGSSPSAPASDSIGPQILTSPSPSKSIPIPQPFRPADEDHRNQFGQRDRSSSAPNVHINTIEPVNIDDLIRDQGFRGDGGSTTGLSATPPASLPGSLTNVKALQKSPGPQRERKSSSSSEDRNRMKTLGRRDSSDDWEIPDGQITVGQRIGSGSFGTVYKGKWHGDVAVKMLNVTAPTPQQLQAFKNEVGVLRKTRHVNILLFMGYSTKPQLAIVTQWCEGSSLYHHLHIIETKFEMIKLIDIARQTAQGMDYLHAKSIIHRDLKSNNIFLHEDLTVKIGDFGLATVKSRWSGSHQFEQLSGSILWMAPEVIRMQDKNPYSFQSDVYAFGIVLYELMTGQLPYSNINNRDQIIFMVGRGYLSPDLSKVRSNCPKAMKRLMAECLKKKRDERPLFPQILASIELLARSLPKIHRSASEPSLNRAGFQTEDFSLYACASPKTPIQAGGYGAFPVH
Sequence of FGFR4 (P22455 467-755 limits assumed): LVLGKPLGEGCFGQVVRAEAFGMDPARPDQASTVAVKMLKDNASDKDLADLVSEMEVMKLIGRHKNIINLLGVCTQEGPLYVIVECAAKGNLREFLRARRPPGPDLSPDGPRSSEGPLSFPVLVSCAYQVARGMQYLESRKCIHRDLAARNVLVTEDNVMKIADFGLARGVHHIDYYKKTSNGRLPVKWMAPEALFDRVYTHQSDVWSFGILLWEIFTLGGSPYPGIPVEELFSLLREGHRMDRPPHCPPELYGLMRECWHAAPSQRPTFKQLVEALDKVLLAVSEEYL
Sequence of FGFR3 (P22607 472-761 limits assumed): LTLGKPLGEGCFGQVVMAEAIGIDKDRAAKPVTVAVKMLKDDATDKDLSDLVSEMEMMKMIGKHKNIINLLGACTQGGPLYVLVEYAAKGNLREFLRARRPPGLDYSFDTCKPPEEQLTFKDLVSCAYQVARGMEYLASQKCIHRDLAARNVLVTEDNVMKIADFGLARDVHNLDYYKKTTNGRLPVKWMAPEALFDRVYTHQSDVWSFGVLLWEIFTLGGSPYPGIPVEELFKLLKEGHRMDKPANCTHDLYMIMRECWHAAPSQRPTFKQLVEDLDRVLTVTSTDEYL
Sequence of FGFR2 (P21802 481-770 limits assumed, species assumed): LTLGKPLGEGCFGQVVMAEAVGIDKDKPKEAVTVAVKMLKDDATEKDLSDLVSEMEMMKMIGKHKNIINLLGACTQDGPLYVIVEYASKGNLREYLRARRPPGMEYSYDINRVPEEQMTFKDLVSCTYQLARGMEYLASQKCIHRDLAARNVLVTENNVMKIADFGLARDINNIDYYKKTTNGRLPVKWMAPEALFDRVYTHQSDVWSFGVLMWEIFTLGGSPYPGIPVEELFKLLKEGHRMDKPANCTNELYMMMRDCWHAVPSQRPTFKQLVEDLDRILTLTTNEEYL

In general, EC50 refers to the concentration at which the effect is half-maximal. High values mean lower potency in that assay, low ones higher potency in that assay. On to `CCN1CCN(Cc2ccc(NC(=O)c3ccc(C)c(NC(=O)c4cncc(-c5cccs5)c4)c3)cc2C(F)(F)F)CC1` [Compound 7], for which the “selectivity profile (binding to kinases)” value in [1] is “inhibited all these kinases and many more”. The EC50 at Tel-Lyn (Ba/F3 cells transformed with Tel fusion of Lyn), at Tel fusion of EphA3, at Bcr-Abl (Ba/F3 cells transformed with Bcr-Abl) and at Tel-Src was less than 500 nM in each case. Besides, the “cross reactivity with Bcr-Abl” value on Bcr-Abl was “cross reactivity”.
Regarding `Cc1ccc(C(=O)Nc2cccc(C(F)(F)F)c2)cc1Nc1[nH]cnc2ncnc1-2` [Compound 10], the “cross reactivity with FGFR3” value on FGFR3 is “cross reactivity”. Further, the “cross reactivity with FGFR2” value on FGFR2 is recorded as “cross reactivity”. Further, the “cross reactivity with FGFR4” value at FGFR4 is “cross reactivity”.
With `Cc1cn(-c2cc(NC(=O)c3ccc(C)c(Nc4nccc(-c5cccnc5)n4)c3)cc(C(F)(F)F)c2)cn1` [nilotinib], in assay [2], the “inhibition of Bcr-Abl gatekeeper mutation” value is given as “not inhibited”. Besides, the EphB2 as target entry at EphB2 is on record as “identified as a target”.
As to `Cc1cn(-c2cc(NC(=O)c3ccc(C)c(NC(=O)c4ccno4)c3)cc(C(F)(F)F)c2)cn1` [Compound 6], the “selectivity profile (binding to kinases)” value in assay [1] is “binding to a common set of kinases”. At Tel-Lyn, the “cellular activity against Src-family kinases (Tel-Lyn)” value is given as “did not exhibit significant cellular activity”. Moreover, the “inhibition of EphA7” value at EphA7 is given as “not inhibited”. The “inhibition of EphB1” value at EphB1 is “not inhibited”. The “cellular activity against Src-family kinases (Tel-Src)” value at Tel-Src is “did not exhibit significant cellular activity”. Further, on b-raf, the “cellular activity against b-raf” value is reported as “did not exhibit significant cellular activity”. The “inhibition of EphA6” value on EphA6 was “not inhibited”.
As for `Cc1ccc(C(=O)Nc2cccc(C(F)(F)F)c2)cc1Nc1ccc2occc(=O)c2c1` [Compound 8], in assay [1], the “selectivity profile (binding to kinases)” value was “binding to a common set of kinases”. Also, the “inhibition of EphA7” value at EphA7 is reported as “not inhibited”. In addition, on EphB1, the “inhibition of EphB1” value is “not inhibited”. Besides, the “cross reactivity with Bcr-Abl” value on Bcr-Abl is given as “cross reactivity”. Also, on EphA6, the “inhibition of EphA6” value is given as “not inhibited”.
With `Cc1nc(Nc2ncc(C(=O)Nc3c(C)cccc3Cl)s2)cc(N2CCN(CCO)CC2)n1` [dasatinib], the EphB2 as target entry on EphB2 is listed as “identified as a target”.
As to `Cc1ccc(C(=O)Nc2cccc(C(F)(F)F)c2)cc1Nc1cncc(C(N)=O)c1` [Compound 9], the “selectivity profile (binding to kinases)” value in assay [1] is recorded as “binding to a common set of kinases”. On Tel-Lyn, the “cellular activity against Src-family kinases (Tel-Lyn)” value was “did not exhibit significant cellular activity”. Besides, at EphA7, the “affinity for EphA7” value was “relatively low affinity” and the “inhibition of EphA7” value is “not inhibited”. Also, at EphB1, the “inhibition of EphB1” value was “not inhibited”. Moreover, at Tel-Src, the “cellular activity against Src-family kinases (Tel-Src)” value is recorded as “did not exhibit significant cellular activity”. On b-raf, the “cellular activity against b-raf” value was “did not exhibit significant cellular activity”. On EphA6, the “inhibition of EphA6” value was “not inhibited”. Besides, the “selectivity and potency (IC50)” value with Eph-family kinases is reported as “good selectivity for Eph-family kinases with moderate potency”.
